Here are results for 28 molecules from ChEMBL document CHEMBL1140251, “Rhodanine derivatives as inhibitors of JSP-1” (Bioorg Med Chem Lett, 2005).

Experiment [1] has as its target Dual specificity protein phosphatase 3 (Homo sapiens, UniProt P51452). Description: In vitro inhibitory concentration against VH1-related (VHR) phosphatase.
Experiment [2] has as its target T1, Dual specificity protein phosphatase 22 (Homo sapiens, UniProt Q9NRW4).
T1 sequence (Q9NRW4 whole entry): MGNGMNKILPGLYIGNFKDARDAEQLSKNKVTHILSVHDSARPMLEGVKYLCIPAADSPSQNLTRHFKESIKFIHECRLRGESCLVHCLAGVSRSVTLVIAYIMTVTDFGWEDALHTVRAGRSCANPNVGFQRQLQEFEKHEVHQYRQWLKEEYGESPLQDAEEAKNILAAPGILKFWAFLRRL
Kind of experiment: Inhibition of JNK-stimulating phosphatase-1 (JSP-1).

Dual specificity protein phosphatase 3, sequence (P51452 whole entry): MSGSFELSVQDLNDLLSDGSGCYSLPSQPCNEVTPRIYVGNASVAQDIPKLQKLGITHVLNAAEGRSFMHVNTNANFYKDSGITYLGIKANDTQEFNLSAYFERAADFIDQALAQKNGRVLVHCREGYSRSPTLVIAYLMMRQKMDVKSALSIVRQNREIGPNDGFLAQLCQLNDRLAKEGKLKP

Broadly, the IC50 is the concentration needed to halve the response being measured. Low readings indicate greater potency in that assay, high ones weaker potency in that assay. Take `O=C(O)Cc1ccc(N2C(=O)/C(=C/c3ccccc3)SC2=S)cc1`: the figures for the IC50 in experiment [1] and in experiment [2] were 100 µM and 20 µM, respectively.
In the case of `O=C(O)c1ccc(/C=C2\SC(=S)N(c3cccc(C(=O)O)c3)C2=O)cc1`, the IC50 in experiment [1] and in experiment [2] was above 200 µM throughout.
As for `O=C(O)Cc1cccc(N2C(=O)/C(=C/c3ccccc3)SC2=S)c1`, the IC50 is above 200 µM in experiment [1] and 20 µM in experiment [2].
In experiment [2], `O=C1/C(=C/c2ccccc2)SC(=S)N1c1ccccc1` registered an IC50 above 200 µM.
As to `O=C(O)c1cccc(N2C(=O)/C(=C/c3ccc([N+](=O)[O-])cc3)SC2=S)c1`, the IC50 was above 50 µM in experiment [1] and 2.6 µM in experiment [2].
Turning to `O=C(O)c1ccc(N2C(=O)S/C(=C\c3ccc(F)cc3)C2=O)cc1`, in experiment [2], the IC50 was above 200 µM.
In the case of `O=C(O)c1cccc(N2C(=O)/C(=C/c3ccccc3)SC2=S)c1` (stereo in doubt; 5m), the IC50 in experiment [1] was above 100 µM; in experiment [2], 6.6 µM.
In the case of `O=C(O)c1ccc(CN2C(=O)/C(=C/c3ccccc3)SC2=S)cc1`, the IC50 was above 200 µM in experiment [1] and 60 µM in experiment [2].
For `O=C(O)c1cc(C(=O)O)cc(N2C(=O)/C(=C/c3ccccc3)SC2=S)c1`, the IC50 in experiment [1] is above 200 µM; in experiment [2], 103 µM.
Regarding `O=C(O)c1cccc(N2C(=O)/C(=C/c3ccccc3)SC2=S)c1` (stereo in doubt; 5t), the IC50 in experiment [1] is above 100 µM; in experiment [2], 7 µM.
The molecule `O=C(O)c1ccc(N2C(=O)/C(=C/c3ccc(F)cc3)OC2=S)cc1` had an IC50 in experiment [2] above 200 µM.
With `O=C(O)c1ccc(N2C(=O)/C(=C/c3ccccc3)SC2=S)cc1O`, the IC50 in experiment [1] was 45 µM; in experiment [2] it was 13 µM.
With `O=C1/C(=C/c2ccccc2)SC(=S)N1c1ccc(S(=O)(=O)O)cc1`, the IC50 in experiment [1] was above 200 µM; in experiment [2] it was 11 µM.
The like results for `Cc1cc(C(=O)O)ccc1N1C(=O)/C(=C/c2ccccc2)SC1=S` were, in that order, above 200 µM and 66 µM.
Turning to `O=C(O)c1cc(N2C(=O)/C(=C/c3ccccc3)SC2=S)ccc1O`, the IC50 in experiment [1] came out at 130 µM; in experiment [2], 13 µM.
As for `O=C(O)c1cccc(N2C(=O)/C(=C/C3CCCCC3)SC2=S)c1`, the IC50 in experiment [1] was above 200 µM; in experiment [2] it was 7.3 µM.
Taken in the same sequence, the figures for `O=C1/C(=C/c2ccccc2)SC(=S)N1c1ccc(CP(=O)(O)O)cc1` were above 200 µM and 10 µM.
In experiment [2], `O=C(O)c1ccc(N2C(=O)/C(=C/c3ccc(F)cc3)NC2=S)cc1` displayed an IC50 above 200 µM.
Regarding `O=C(O)c1ccc(N2C(=O)/C(=C/c3ccc(F)cc3)SC2=S)cc1`, half-maximal inhibition in experiment [2] (IC50) was put at 4.2 µM.
On to `O=C(O)c1ccccc1N1C(=O)/C(=C/c2ccccc2)SC1=S`, for which the IC50 in experiment [1] and in experiment [2] was above 200 µM in each case.
Regarding `O=C(O)c1cccc(N2C(=O)/C(=C/c3ccc(O)cc3)SC2=S)c1`, the figures for the IC50 in experiment [1] and in experiment [2] were above 200 µM and 157 µM, respectively.
The molecule `COC(=O)c1ccc(N2C(=O)/C(=C/c3ccccc3)SC2=S)cc1` gave an IC50 in experiment [2] above 200 µM.
Turning to `Cc1ccc(/C=C2\SC(=S)N(c3cccc(C(=O)O)c3)C2=O)cc1`, the IC50 was determined as 123 µM in experiment [1] and 16 µM in experiment [2].
On to `CC/C=C1\SC(=S)N(c2cccc(C(=O)O)c2)C1=O`, for which the IC50 in experiment [1] is above 200 µM; in experiment [2], 59 µM.
The like results for `O=C(O)c1cccc(N2C(=O)/C(=C/c3ccc(F)cc3)SC2=S)c1` were, in that order, above 50 µM and 1.3 µM.
With `COc1ccc(/C=C2\SC(=S)N(c3cccc(C(=O)O)c3)C2=O)cc1`, the IC50 in experiment [1] is above 200 µM; in experiment [2] it was 26 µM.
In the case of `O=C(O)c1ccc(N2C(=O)/C(=C/c3ccccc3)SC2=S)cc1`, the 50% inhibitory concentration (IC50) is above 200 µM in experiment [1] and 18 µM in experiment [2].
In experiment [2], `CN1C(=S)N(c2ccc(C(=O)O)cc2)C(=O)/C1=C/c1ccc(F)cc1` displayed an IC50 above 200 µM.
